# Results reported in US20240116850A1, “COMPOSITIONS AND METHODS RELATED TO BICYCLO[2.2.1] HEPTANAMINE-CONTAINING COMPOUNDS” (The Broad Institute, Inc., priority 2020, published 2024).
# pEC50, pIC50: −log10 of the molar value.
# Tests used:
# [1] = tested on: MUC1-wt; experiment: High-content imaging assay of MUC1-wt total cytoplasm intensity in P cells; assay type: cell-based; details: for EC50: MUC1-wt total cytoplasm intensity, P cells, 48 hr incubation; for WT ECMax: MUC1-wt, DMSO = 0, JQ1 (250 nM) = −100% activity
# Protocol: (§1) P cells were seeded 24 hr prior to compound treatment at a density of 12,000 cells/well in 384 well Cell Carrier Ultra plates (6057308, Perkin Elmer), pre-coated with 0.25 mg/mL Synthemax 11 SC Substrate (3535, Corning). Compounds were used at 5 doses (35, 3.5, 0.35, 0.035 and 0.0035 μM) for the primary screen and 10 doses (16, 5.6, 1.8, 0.6, 0.21, 0.07, 0.02, 0.008, 0.002 and 0.0008 μM) for the following screens. The compounds, in two replicates, were transferred from compound source plates to the cell plates using the HighRes Pin Tool. DMSO was used as a negative control and JQ1 (250 nM) (a bromodomain inhibitor) was chosen as a positive control, based on earlier studies showing its potent effect on reducing total MUC1 mRNA levels (data not shown). After 48 hr incubation, cells were fixed for 20 min in 4% PFA (Electron Microscopy Sciences) in PBS, washed twice, then permeabilized (10 min) with 0.5% Triton-X100 (X100-100MVL, Sigma-Aldrich) in PBS and washed once more. Cells were blocked for 10 min at RT with Blocking solution (100 mM Tris HCL pH8; l150 mM NaCL; 5 g/L Blocking Reagent [11096176001, Roche]), then incubated 90 min at RT with one of the following primary antibodies in Roche Blocking solution: 1:500, monoclonal Fab-A-V5H anti-MUC1-fs, AbD22655.2, Bio-Rad; 1:2000, monoclonal mouse anti-MUC1 (214D4), 05-652-KC, Millipore; 1:1000, monoclonal, Rabbit anti-GM130 (D6B1) XP, 12480, Cell signaling technology. The primary antibody cocktail was incubated at RT for 1.5 hr, followed by four PBS wash cycles. The secondary antibody cocktail contained four components that were all prepared at a 1:1000 dilution in the Roche blocking solution and consisted of Alexa Fluor® 488-conjugated AffiniPure F(ab′)2 Fragment Goat anti-Human IgG, 109-546-097, Jackson Immunoresearch; Alexa Fluor® 647-conjugated Goat anti-Rabbit IgG, A-21246, Thermo Fisher Scientific®; Alexa Fluor® 546 Goat anti-mouse IgG, A-21123, Thermo Fisher Scientific® and Hoechst 33342 stain (62249, Thermo Fisher Scientific®). The secondary antibody cocktail was incubated at RT for 45 min, followed by four PBS wash cycles. Finally, plates were sealed with a Plate Loc plate and stored in Liconic incubator at 10° C. until imaging. Following image analysis, three parameters were selected, i) MUC1-fs and ii) MUC1-wt total cytoplasm intensity (averaged per cell) and iii) cell number as was detected by Hoechst 33342 stained nuclei. The levels of MUC1-fs and MUC1-wt found following DMSO and JQ1 were defined as 0 and −100% activity, respectively. The values obtained for all compounds were normalized accordingly. Cell number was normalized to DMSO control.
# (§2) The pure enantiomers were profiled in the high-content imaging assay for the ability to reduce the amount of FS MUC1 protein in the cytoplasm (Table 48) following the procedure of Example 4.
# [2] = tested on: MUC1-fs; experiment: High-content imaging assay of MUC1-fs total cytoplasm intensity in P cells; assay type: cell-based; details: for pEC50: MUC1-fs total cytoplasm intensity, P cells, 48 hr incubation; for ECMax: MUC1-fs, DMSO = 0, JQ1 (250 nM) = −100% activity
# Protocol: as §1, §2
# [3] = high-content imaging assay, procedure of Example 4
SMILES,EC50 [1] [µM],pEC50 [2],"pIC50 [2, 3]",pIC50 ([2]; second pair of columns (c3-c4)),WT ECMax [1] [%],ECMax [2] [%],"FS MUC1 cytoplasm EMax (%) [2, 3] [%]",FS MUC1 cytoplasm EMax (%) ([2]; second pair of columns (c3-c4)),"reduction in wild-type MUC1 levels [1, 3]"
"Cl.N[C@H]1[C@H]2CC[C@H](C2)[C@@H]1c1ccccc1 (single isomer, unassigned) [Compound 120-P2]",> 32,< 4.49,,,−11.21,−24.61,,,
CCC[C@H]1[C@H]2CC[C@H](C2)[C@@H]1N.Cl [Compound 108-P1],> 32,4.52,,,−12.05,−24.9,,,
CCC[C@H]1[C@@H]2CC[C@@H](C2)[C@@H]1N.Cl [Compound 107-P2],> 32,< 4.49,,,8.96,−9.6,,,
CC(C)C[C@H]1[C@H]2CC[C@H](C2)[C@@H]1N.Cl (racemic) [Compound 112],> 32,< 4.49,,,−8.84,18.48,,,
"CC(C)[C@@H]1[C@H]2CC[C@H](C2)[C@H]1N.Cl (single isomer, unassigned) [BRD4780 Fr2]",,,,,,,−46,60,
"C[C@@H]1[C@H]2CC[C@H](C2)[C@H]1N.Cl (single isomer, unassigned) [Compound 104-P2]",,,,,−14.86,−78.16,,,
Cl.N[C@@H]1[C@@H]2CC[C@@H](C2)[C@H]1c1cccs1 (racemic) [Compound 122],> 32,< 4.49,,,−10.53,−12.17,,,
"CC(C)[C@H]1[C@@H]2CC[C@@H](C2)[C@@H]1N.Cl (single isomer, unassigned) [BRD4780 Fr1]",,,,,,,−42,113,
CCC[C@@H]1[C@H]2CC[C@H](C2)[C@H]1N.Cl (racemic) [Compound 107-rac],> 32,< 4.49,,,8.64,10.08,,,
"Cl.N[C@H]1[C@@H]2CC[C@@H](C2)[C@@H]1C1CC1 (single isomer, unassigned) [Compound 110-P1]",,,,,−8.95,−50.96,,,
"Cl.N[C@H]1[C@@H]2CC[C@@H](C2)[C@@H]1C1CCCCC1 (single isomer, unassigned) [Compound 119-P1]",> 32,< 4.49,,,−14.31,−14.14,,,
CCC[C@H]1[C@H]2CC[C@H](C2)[C@@H]1N.Cl (racemic) [Compound 108-rac],> 32,< 4.49,,,−4.32,−8.01,,,
"CC(C)C1C2CCC(C2)C1N.Cl (racemic) [BRD4780, rac-3-exo-isopropylbicyclo[2.2.1]heptan-2-endo-amine hydrochloride, reference compound]",,,,,,,,,no observed reduction

# More lines, main results first:
EC50 [1] [µM],pEC50 [2],"pIC50 [2, 3]",pIC50 ([2]; second pair of columns (c3-c4)),SMILES,WT ECMax [1] [%],ECMax [2] [%],"FS MUC1 cytoplasm EMax (%) [2, 3] [%]",FS MUC1 cytoplasm EMax (%) ([2]; second pair of columns (c3-c4)),"reduction in wild-type MUC1 levels [1, 3]"
> 32,< 4.49,,,"Cl.N[C@@H]1[C@@H]2CC[C@@H](C2)[C@H]1C1CCCC1 (single isomer, unassigned) [Compound 116-P1]",18.63,−10.6,,,
> 32,5.07,,,"Cl.N[C@H]1[C@@H]2CC[C@@H](C2)[C@@H]1C1CC1 (single isomer, unassigned) [Compound 110-P1, (1R,2S,3S,4S)-3-cyclopropylbicyclo[2.2.1]heptan-2-amine hydrochloride]",,,,,
> 32,< 4.49,,,"Cl.N[C@@H]1[C@@H]2CC[C@@H](C2)[C@H]1C1CCCCC1 (single isomer, unassigned) [Compound 118-P1]",9.54,−7.97,,,
> 32,< 4.49,,,"Cl.N[C@H]1[C@H]2CC[C@H](C2)[C@@H]1C1CCCCC1 (single isomer, unassigned) [Compound 118-P2]",0,0,,,
12.3,6.28,,,CC(C)[C@@H]1[C@@H]2CC[C@@H](C2)[C@H]1N.Cl [Compound 101],18.4,−68.74,,,
> 32,4.59,,,"Cl.N[C@H]1[C@@H]2CC[C@@H](C2)[C@@H]1C1CCCC1 (single isomer, unassigned) [Compound 117-P1]",7.72,−16.91,,,
> 32,< 4.49,,,Cl.N[C@H]1[C@@H]2CC[C@@H](C2)[C@@H]1C1CCCCC1 (racemic) [Compound 119],14.48,20.39,,,
> 32,< 4.49,,,"Cl.N[C@@H]1[C@H]2CC[C@H](C2)[C@H]1C1CCCC1 (single isomer, unassigned) [Compound 117-P2]",−15.43,−15.88,,,
> 32,4.71,,,"C[C@@H]1[C@H]2CC[C@H](C2)[C@H]1N.Cl (single isomer, unassigned) [Compound 104-P1, (1R,2R,3R,4S)-3-methylbicyclo[2.2.1]heptan-2-amine hydrochloride]",,,,,
,,6.76,4.90,"CC(C)[C@@H]1[C@H]2CC[C@H](C2)[C@H]1N.Cl (single isomer, unassigned) [BRD4780 Fr2, hydrochloride]",,,,,
> 32,< 4.49,,,"Cl.N[C@@H]1[C@H]2CC[C@H](C2)[C@H]1C1CCCCC1 (single isomer, unassigned) [Compound 119-P2]",0,0,,,
> 32,5.47,,,"Cl.N[C@@H]1[C@H]2CC[C@H](C2)[C@H]1C1CC1 (single isomer, unassigned) [Compound 110-P2, (1S,2R,3R,4R)-3-cyclopropylbicyclo[2.2.1]heptan-2-amine hydrochloride]",,,,,
> 32,< 4.49,,,"Cl.N[C@H]1[C@H]2CC[C@H](C2)[C@@H]1C1CCCC1 (single isomer, unassigned) [Compound 116-P2]",−19.89,−16.96,,,
> 32,5.06,,,CC(C)[C@H]1[C@H]2CC[C@H](C2)[C@@H]1N.Cl [Compound 102],−16.83,−60.66,,,
> 32,6.35,,,Cl.N[C@@H]1[C@@H]2CC[C@@H](C2)[C@H]1C1CC1 (racemic) [Compound 109],−12.5,−73.56,,,
> 32,5.67,,,"CC(C)[C@H]1[C@H]2CC[C@H](C2)[C@H]1N.Cl (racemic) [Compound 103, rac-3-endo-isopropylbicyclo[2.2.1]heptan-2-endo-amine hydrochloride]",−13.31,−83.25,,,
,,6.81,5.04,"CC(C)[C@H]1[C@@H]2CC[C@@H](C2)[C@@H]1N.Cl (single isomer, unassigned) [BRD4780 Fr1, hydrochloride]",,,,,
> 32,< 4.49,,,"Cl.N[C@@H]1[C@H]2CC[C@H](C2)[C@H]1C1CCC1 (single isomer, unassigned) [Compound 114-P2]",9.94,−15.43,,,
> 32,< 4.49,,,CC(C)C[C@@H]1[C@H]2CC[C@H](C2)[C@H]1N.Cl (racemic) [Compound 111],10.58,−9.02,,,
